Assay results as given in patent US9522914B2, “Azole derivative” (TAISHO PHARMACEUTICAL CO., LTD, priority 2011, dated 2016).

biological target: Human V1b receptor (Homo sapiens (Human), UniProt P47901); assay: Binding Test for V1b Receptor ([3H]AVP, crude membrane preparation of 293FT cells); settings: inhibition of [3H]AVP binding (0.4 to 1 nmol/L), room temperature, 60 minutes
Procedure, shortened: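 Crude membranes from 293FT cells transiently expressing human V1b, incubated with [3H]AVP (0.4 to 1 nmol/L) and compound (0.01 nmol/L–1 μmol/L final) in Tris pH 7.4 with MgCl2 and 0.1% BSA, 60 min at room temperature. Bound label collected by filtration. Nonspecific binding defined with unlabeled AVP; IC50 from dose-response curve.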

Chain of Human V1b receptor (P47901 whole entry): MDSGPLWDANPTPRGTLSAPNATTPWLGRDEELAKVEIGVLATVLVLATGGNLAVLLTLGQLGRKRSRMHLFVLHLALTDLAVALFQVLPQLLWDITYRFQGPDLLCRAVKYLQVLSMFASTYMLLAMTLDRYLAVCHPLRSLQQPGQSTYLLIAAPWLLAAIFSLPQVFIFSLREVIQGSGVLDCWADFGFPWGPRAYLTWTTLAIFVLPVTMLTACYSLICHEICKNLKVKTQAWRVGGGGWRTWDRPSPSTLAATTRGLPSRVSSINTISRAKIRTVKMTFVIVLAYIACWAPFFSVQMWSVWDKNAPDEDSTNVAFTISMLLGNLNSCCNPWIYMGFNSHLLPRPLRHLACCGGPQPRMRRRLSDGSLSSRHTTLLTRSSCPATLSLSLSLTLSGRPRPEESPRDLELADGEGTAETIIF

SMILES	IC50 [nM]
CC(C)NC(=O)Cc1nn(-c2ccc(CC(C)N3CCOCC3)cc2)c(=O)n1-c1cccc(Cl)c1 [Example D-17, 2-[4-(3-chlorophenyl)-1-{4-[2-(morpholin-4-yl)propyl]phenyl}-5-oxo-4,5-dihydro-1H-1,2,4-triazol-3-yl]-N-(propan-2-yl)acetamide]	3.9
CC(C)NC(=O)Cc1nn(-c2ccc(CC(C)N3CCOCC3)cn2)c(=O)n1-c1cccc(Cl)c1 [Example D-19, 2-[4-(3-chlorophenyl)-1-{5-[2-(morpholin-4-yl)propyl]pyridin-2-yl}-5-oxo-4,5-dihydro-1H-1,2,4-triazol-3-yl]-N-(propan-2-yl)acetamide]	10 to 100
CC(C)NC(=O)Cc1nn(-c2ccc(CCN3CCOCC3)c(F)c2)c(=O)n1-c1cccc(Cl)c1 [Example D-20, 2-[4-(3-chlorophenyl)-1-{3-fluoro-4-[2-(morpholin-4-yl)ethyl]phenyl}-5-oxo-4,5-dihydro-1H-1,2,4-triazol-3-yl]-N-(propan-2-yl)acetamide]	20
CC(C)NC(=O)Cc1nn(-c2ccc(CCN3C4CCC3COC4)c(F)c2)c(=O)n1-c1cccc(Cl)c1 [Example D-21, 2-[4-(3-chlorophenyl)-1-{3-fluoro-4-[2-(3-oxa-8-azabicyclo[3.2.1]oct-8-yl)ethyl]phenyl}-5-oxo-4,5-dihydro-1H-1,2,4-triazol-3-yl]-N-(propan-2-yl)acetamide]	7.5
COc1cc(-n2nc(CC(=O)NC(C)C)n(-c3cccc(Cl)c3)c2=O)ccc1CCN1CCOCC1 [Example D-22, 2-[4-(3-chlorophenyl)-1-{3-methoxy-4-[2-(morpholin-4-yl)ethyl]phenyl}-5-oxo-4,5-dihydro-1H-1,2,4-triazol-3-yl]-N-(propan-2-yl)acetamide]	12
COc1cc(-n2nc(CC(=O)NC(C)C)n(-c3cccc(Cl)c3)c2=O)ccc1CCN1C2CCC1COC2 [Example D-23, 2-[4-(3-chlorophenyl)-1-{3-methoxy-4-[2-(3-oxa-8-azabicyclo[3.2.1]oct-8-yl)ethyl]phenyl}-5-oxo-4,5-dihydro-1H-1,2,4-triazol-3-yl]-N-(propan-2-yl)acetamide]	3.3
CC(C)NC(=O)Cc1nn(-c2ccc(CCN3C4CCC3COC4)cc2F)c(=O)n1-c1cccc(Cl)c1 [Example D-24, 2-[4-(3-chlorophenyl)-1-{2-fluoro-4-[2-(3-oxa-8-azabicyclo[3.2.1]oct-8-yl)ethyl]phenyl}-5-oxo-4,5-dihydro-1H-1,2,4-triazol-3-yl]-N-(propan-2-yl)acetamide]	10 to 100
COc1cc(CCN2C3CCC2COC3)ccc1-n1nc(CC(=O)NC(C)C)n(-c2cccc(Cl)c2)c1=O [Example D-25, 2-[4-(3-chlorophenyl)-1-{2-methoxy-4-[2-(3-oxa-8-azabicyclo[3.2.1]oct-8-yl)ethyl]phenyl}-5-oxo-4,5-dihydro-1H-1,2,4-triazol-3-yl]-N-(propan-2-yl)acetamide]	100 to 1000
CC(C)NC(=O)Cc1nn(-c2ccc(CCN3CCOCC3)cc2)c(=O)n1-c1ccc(F)c(Cl)c1 [Example D-26, 2-[4-(3-chloro-4-fluorophenyl)-1-{4-[2-(morpholin-4-yl)ethyl]phenyl}-5-oxo-4,5-dihydro-1H-1,2,4-triazol-3-yl]-N-(propan-2-yl)acetamide]	4.4
CC(C)NC(=O)Cc1nn(-c2ccc(CCN3C4CCC3COC4)cc2)c(=O)n1-c1ccc(F)c(Cl)c1 [Example D-27, 2-[4-(3-chloro-4-fluorophenyl)-1-{4-[2-(3-oxa-8-azabicyclo[3.2.1]oct-8-yl)ethyl]phenyl}-5-oxo-4,5-dihydro-1H-1,2,4-triazol-3-yl]-N-(propan-2-yl)acetamide]	5.3
CC(C)NC(=O)Cc1nn(-c2ccc(CCN3CCOCC3)cn2)c(=O)n1-c1ccc(F)c(Cl)c1 [Example D-28, 2-[4-(3-chloro-4-fluorophenyl)-1-{5-[2-(morpholin-4-yl)ethyl]pyridin-2-yl}-5-oxo-4,5-dihydro-1H-1,2,4-triazol-3-yl]-N-(propan-2-yl)acetamide]	10 to 100
CC(C)NC(=O)Cc1nn(-c2ccc(CCN3C4CCC3COC4)cn2)c(=O)n1-c1ccc(F)c(Cl)c1 [Example D-29, 2-[4-(3-chloro-4-fluorophenyl)-1-{5-[2-(3-oxa-8-azabicyclo[3.2.1]oct-8-yl)ethyl]pyridin-2-yl}-5-oxo-4,5-dihydro-1H-1,2,4-triazol-3-yl]-N-(propan-2-yl)acetamide]	10 to 100
CC(C)(C)NC(=O)Cc1nn(-c2ccc(CCN3CCOCC3)cc2)c(=O)n1-c1ccc(F)c(Cl)c1 [Example D-30, N-tert-butyl-2-[4-(3-chloro-4-fluorophenyl)-1-{4-[2-(morpholin-4-yl)ethyl]phenyl}-5-oxo-4,5-dihydro-1H-1,2,4-triazol-3-yl]acetamide]	2.8
CC(C)(C)NC(=O)Cc1nn(-c2ccc(CCN3C4CCC3COC4)cc2)c(=O)n1-c1ccc(F)c(Cl)c1 [Example D-31, N-tert-butyl-2-[4-(3-chloro-4-fluorophenyl)-1-{4-[2-(3-oxa-8-azabicyclo[3.2.1]oct-8-yl)ethyl]phenyl}-5-oxo-4,5-dihydro-1H-1,2,4-triazol-3-yl]acetamide]	2.9
CC(C)(C)NC(=O)Cc1nn(-c2ccc(CCN3CCOCC3)cn2)c(=O)n1-c1ccc(F)c(Cl)c1 [Example D-32, N-tert-butyl-2-[4-(3-chloro-4-fluorophenyl)-1-{5-[2-(morpholin-4-yl)ethyl]pyridin-2-yl}-5-oxo-4,5-dihydro-1H-1,2,4-triazol-3-yl]acetamide]	17
CC(C)(C)NC(=O)Cc1nn(-c2ccc(CCN3C4CCC3COC4)cn2)c(=O)n1-c1ccc(F)c(Cl)c1 [Example D-33, N-tert-butyl-2-[4-(3-chloro-4-fluorophenyl)-1-{5-[2-(3-oxa-8-azabicyclo[3.2.1]oct-8-yl)ethyl]pyridin-2-yl}-5-oxo-4,5-dihydro-1H-1,2,4-triazol-3-yl]acetamide]	9.1
CC(C)NC(=O)Cc1nn(-c2ccc(CC(C)N3C4CCC3COC4)cn2)c(=O)n1-c1cccc(Cl)c1 [Example D-34, 2-[4-(3-chlorophenyl)-1-{5-[2-(3-oxa-8-azabicyclo[3.2.1]oct-8-yl)propyl]pyridin-2-yl}-5-oxo-4,5-dihydro-1H-1,2,4-triazol-3-yl]-N-(propan-2-yl)acetamide]	3.3
CC(C)NC(=O)Cc1nn(-c2ccc(CCN3CCOCC3)cc2)c(=O)n1-c1cccc(C(F)(F)F)c1 [Example D-35, 2-(1-{4-[2-(morpholin-4-yl)ethyl]phenyl}-5-oxo-4-[3-(trifluoromethyl)phenyl]-4,5-dihydro-1H-1,2,4-triazol-3-yl)-N-(propan-2-yl)acetamide]	18
CC(C)NC(=O)Cc1nn(-c2ccc(CC(C)N3C4CCC3COC4)cc2)c(=O)n1-c1ccc(F)c(Cl)c1 [Example D-36, 2-[4-(3-chloro-4-fluorophenyl)-1-{4-[2-(3-oxa-8-azabicyclo[3.2.1]oct-8-yl)propyl]phenyl}-5-oxo-4,5-dihydro-1H-1,2,4-triazol-3-yl]-N-(propan-2-yl)acetamide]	0.61
COc1cc(-n2c(CC(=O)NC(C)C)nn(-c3ccc(CCN4C5CCC4COC5)cc3)c2=O)ccc1F [Example D-37, 2-[4-(4-fluoro-3-methoxyphenyl)-1-{4-[2-(3-oxa-8-azabicyclo[3.2.1]oct-8-yl)ethyl]phenyl}-5-oxo-4,5-dihydro-1H-1,2,4-triazol-3-yl]-N-(propan-2-yl)acetamide]	12
COc1cc(-n2c(CC(=O)NC(C)C)nn(-c3ccc(CCN4C5CCC4COC5)cn3)c2=O)ccc1F [Example D-38, 2-[4-(4-fluoro-3-methoxyphenyl)-1-{5-[2-(3-oxa-8-azabicyclo[3.2.1]oct-8-yl)ethyl]pyridin-2-yl}-5-oxo-4,5-dihydro-1H-1,2,4-triazol-3-yl]-N-(propan-2-yl)acetamide]	10 to 100
COc1cccc(-n2c(CC(=O)NC(C)C)nn(-c3ccc(CCN4C5CCC4COC5)cc3)c2=O)c1 [Example D-39, 2-[4-(3-methoxyphenyl)-1-{4-[2-(3-oxa-8-azabicyclo[3.2.1]oct-8-yl)ethyl]phenyl}-5-oxo-4,5-dihydro-1H-1,2,4-triazol-3-yl]-N-(propan-2-yl)acetamide]	10 to 100
COc1cccc(-n2c(CC(=O)NC(C)C)nn(-c3ccc(CCN4C5CCC4COC5)cn3)c2=O)c1 [Example D-40, 2-[4-(3-methoxyphenyl)-1-{5-[2-(3-oxa-8-azabicyclo[3.2.1]oct-8-yl)ethyl]pyridin-2-yl}-5-oxo-4,5-dihydro-1H-1,2,4-triazol-3-yl]-N-(propan-2-yl)acetamide]	100 to 1000
COc1cc(-n2c(CC(=O)NC(C)C)nn(-c3ccc(CCN4C5CCC4COC5)c(OC)c3)c2=O)ccc1F [Example D-41, 2-[4-(4-fluoro-3-methoxyphenyl)-1-{3-methoxy-4-[2-(3-oxa-8-azabicyclo[3.2.1]oct-8-yl)ethyl]phenyl}-5-oxo-4,5-dihydro-1H-1,2,4-triazol-3-yl]-N-(propan-2-yl)acetamide]	2.7
COc1cccc(-n2c(CC(=O)NC(C)C)nn(-c3ccc(CCN4C5CCC4COC5)c(OC)c3)c2=O)c1 [Example D-42, 2-[1-{3-methoxy-4-[2-(3-oxa-8-azabicyclo[3.2.1]oct-8-yl)ethyl]phenyl}-4-(3-methoxyphenyl)-5-oxo-4,5-dihydro-1H-1,2,4-triazol-3-yl]-N-(propan-2-yl)acetamide]	7.9
CC(C)NC(=O)Cc1nn(-c2ccc(CCN3CCCC3)cc2)c(=O)n1-c1ccc(F)c(Cl)c1 [Example D-43, 2-[4-(3-chloro-4-fluorophenyl)-5-oxo-1-{4-[2-(pyrrolidin-1-yl)ethyl]phenyl}-4,5-dihydro-H-1,2,4-triazol-3-yl]-N-(propan-2-yl)acetamide]	15
CC(C)NC(=O)Cc1nn(-c2ccc(CCN3CCCCC3)cc2)c(=O)n1-c1ccc(F)c(Cl)c1 [Example D-44, 2-[4-(3-chloro-4-fluorophenyl)-5-oxo-1-{4-[2-(piperidin-1-yl)ethyl]phenyl}-4,5-dihydro-1H-1,2,4-triazol-3-yl]-N-(propan-2-yl)acetamide]	16
